Assay results as given in ChEMBL document CHEMBL1201862, “PubChem BioAssay data set” (2004).
Counter-ions that a name gives are not always drawn. Activity calls are given as the source filed them.

Legend:
[1] = target: T1, Heat shock factor protein 1 (Mus musculus, UniProt P38532); test: decrease of HSF1-responsive luciferase luminescence – cell-based, NIH3T3, dose retest, confirmation (AID 2382); type: functional;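 also: NIH3T3 fibroblasts with HSF1-driven luciferase reporter stressed by proteasome inhibitor MG132; luminescence from HSF1-driven luciferase expression after 8 hours of MG132 stress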
T1 sequence (P38532 whole entry): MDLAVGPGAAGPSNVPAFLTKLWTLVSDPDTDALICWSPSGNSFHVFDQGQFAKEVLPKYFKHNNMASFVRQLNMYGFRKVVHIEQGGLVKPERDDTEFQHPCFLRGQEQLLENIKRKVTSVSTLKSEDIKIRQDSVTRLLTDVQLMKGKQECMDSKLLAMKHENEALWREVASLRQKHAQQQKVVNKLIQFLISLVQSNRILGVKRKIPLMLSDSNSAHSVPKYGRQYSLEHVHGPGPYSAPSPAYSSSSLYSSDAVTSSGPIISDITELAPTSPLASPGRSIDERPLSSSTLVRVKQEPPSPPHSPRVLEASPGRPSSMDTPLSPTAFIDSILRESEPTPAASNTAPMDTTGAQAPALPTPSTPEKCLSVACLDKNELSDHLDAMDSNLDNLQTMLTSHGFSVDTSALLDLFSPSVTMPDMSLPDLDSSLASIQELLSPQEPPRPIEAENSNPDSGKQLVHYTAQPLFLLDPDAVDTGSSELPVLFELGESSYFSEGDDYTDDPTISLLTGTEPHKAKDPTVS

[2] = target: Cytochrome P450 2C9 (Homo sapiens, UniProt P11712)
Sequence of Cytochrome P450 2C9 (P11712 whole entry): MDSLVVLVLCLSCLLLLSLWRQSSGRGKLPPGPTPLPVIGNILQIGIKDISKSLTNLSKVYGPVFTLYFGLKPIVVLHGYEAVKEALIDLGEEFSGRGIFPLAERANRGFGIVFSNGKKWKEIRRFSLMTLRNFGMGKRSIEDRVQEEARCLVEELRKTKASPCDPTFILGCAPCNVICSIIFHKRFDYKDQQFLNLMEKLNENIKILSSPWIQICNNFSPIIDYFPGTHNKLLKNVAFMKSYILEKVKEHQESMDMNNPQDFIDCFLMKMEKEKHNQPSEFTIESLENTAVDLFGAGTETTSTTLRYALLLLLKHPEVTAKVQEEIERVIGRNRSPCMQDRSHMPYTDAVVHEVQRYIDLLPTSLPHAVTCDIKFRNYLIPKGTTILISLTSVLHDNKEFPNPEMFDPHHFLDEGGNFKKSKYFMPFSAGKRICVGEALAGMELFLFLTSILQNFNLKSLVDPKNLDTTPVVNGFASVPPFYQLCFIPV

[3] = target: Cytochrome P450 2C19 (Homo sapiens, UniProt P33261); test: Cytochrome panel assay with activity outcomes. Panel member name: p450-cyp2c19 Compounds with AC50 equal or less than 10 uM are considered active; type: functional; conditions: read-out: AC50
Sequence of Cytochrome P450 2C19 (P33261 whole entry): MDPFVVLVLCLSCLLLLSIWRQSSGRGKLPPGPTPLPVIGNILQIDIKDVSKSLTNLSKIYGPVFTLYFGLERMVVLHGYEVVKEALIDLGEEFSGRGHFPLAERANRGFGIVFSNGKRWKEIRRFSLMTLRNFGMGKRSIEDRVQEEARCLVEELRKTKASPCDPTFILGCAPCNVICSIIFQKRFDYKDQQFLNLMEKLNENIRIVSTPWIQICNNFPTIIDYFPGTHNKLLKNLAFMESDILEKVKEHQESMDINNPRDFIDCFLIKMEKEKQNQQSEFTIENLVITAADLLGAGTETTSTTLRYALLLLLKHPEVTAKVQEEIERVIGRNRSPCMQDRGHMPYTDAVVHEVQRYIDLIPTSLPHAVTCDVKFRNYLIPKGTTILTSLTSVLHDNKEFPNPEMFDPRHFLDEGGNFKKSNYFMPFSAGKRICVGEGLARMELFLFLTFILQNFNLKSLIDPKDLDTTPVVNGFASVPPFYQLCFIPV

[4] = target: T2, Cytochrome P450 1A2 (Homo sapiens, UniProt P05177);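 also: PubChem cytochrome P450 panel assay, CYP1A2 panel member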
T2 sequence (P05177 whole entry): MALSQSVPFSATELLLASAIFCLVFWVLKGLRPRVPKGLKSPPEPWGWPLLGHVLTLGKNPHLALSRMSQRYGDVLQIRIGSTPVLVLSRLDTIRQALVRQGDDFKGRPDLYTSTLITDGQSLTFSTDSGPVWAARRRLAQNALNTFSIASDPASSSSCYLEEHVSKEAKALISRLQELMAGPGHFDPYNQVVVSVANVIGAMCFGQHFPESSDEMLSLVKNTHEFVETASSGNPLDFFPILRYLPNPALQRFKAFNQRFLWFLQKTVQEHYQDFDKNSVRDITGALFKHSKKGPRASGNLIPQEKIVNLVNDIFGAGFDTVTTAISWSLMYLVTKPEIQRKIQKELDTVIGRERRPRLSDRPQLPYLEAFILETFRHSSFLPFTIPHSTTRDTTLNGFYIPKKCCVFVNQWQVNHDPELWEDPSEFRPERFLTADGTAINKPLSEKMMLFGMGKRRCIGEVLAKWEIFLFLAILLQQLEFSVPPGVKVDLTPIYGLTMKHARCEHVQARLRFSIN

[5] = target: T3, Protein RecA (Mycobacterium tuberculosis, UniProt P9WHJ3); test: Fluorescence Cell-Free Homogeneous Dose Retest to Identify Inhibitors of RecA-Intein Splicing Activity. [Related pubchem assays (depositor defined):AID2097, AID2223, AID489010, AID492950]; type: functional
T3 sequence (P9WHJ3 whole entry): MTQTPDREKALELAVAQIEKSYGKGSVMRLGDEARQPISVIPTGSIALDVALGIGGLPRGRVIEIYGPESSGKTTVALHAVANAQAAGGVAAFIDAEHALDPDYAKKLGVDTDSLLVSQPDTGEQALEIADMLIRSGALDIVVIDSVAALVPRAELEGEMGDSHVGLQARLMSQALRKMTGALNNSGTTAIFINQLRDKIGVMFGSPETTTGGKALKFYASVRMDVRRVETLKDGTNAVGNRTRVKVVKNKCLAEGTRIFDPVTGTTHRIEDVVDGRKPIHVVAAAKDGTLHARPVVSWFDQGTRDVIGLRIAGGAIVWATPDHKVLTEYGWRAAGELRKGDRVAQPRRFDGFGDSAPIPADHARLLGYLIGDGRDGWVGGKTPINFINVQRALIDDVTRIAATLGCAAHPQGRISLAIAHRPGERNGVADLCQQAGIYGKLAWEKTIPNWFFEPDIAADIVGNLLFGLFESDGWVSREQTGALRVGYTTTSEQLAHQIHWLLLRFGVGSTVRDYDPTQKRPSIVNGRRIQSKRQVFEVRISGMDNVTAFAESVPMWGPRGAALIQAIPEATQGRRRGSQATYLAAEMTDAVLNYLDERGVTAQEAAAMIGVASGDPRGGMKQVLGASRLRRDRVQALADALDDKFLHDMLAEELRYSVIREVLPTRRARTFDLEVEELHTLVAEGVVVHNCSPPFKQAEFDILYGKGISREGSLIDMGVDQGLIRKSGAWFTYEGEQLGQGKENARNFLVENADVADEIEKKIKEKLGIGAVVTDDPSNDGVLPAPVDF

[6] = target: T4, Replicative DNA helicase DnaB (Mycobacterium tuberculosis, UniProt P9WMR3); test: DnaB intein splicing inhibitors, dose response, biochemical, cell-free fluorescence (AID 449749); type: functional
T4 sequence (P9WMR3 whole entry): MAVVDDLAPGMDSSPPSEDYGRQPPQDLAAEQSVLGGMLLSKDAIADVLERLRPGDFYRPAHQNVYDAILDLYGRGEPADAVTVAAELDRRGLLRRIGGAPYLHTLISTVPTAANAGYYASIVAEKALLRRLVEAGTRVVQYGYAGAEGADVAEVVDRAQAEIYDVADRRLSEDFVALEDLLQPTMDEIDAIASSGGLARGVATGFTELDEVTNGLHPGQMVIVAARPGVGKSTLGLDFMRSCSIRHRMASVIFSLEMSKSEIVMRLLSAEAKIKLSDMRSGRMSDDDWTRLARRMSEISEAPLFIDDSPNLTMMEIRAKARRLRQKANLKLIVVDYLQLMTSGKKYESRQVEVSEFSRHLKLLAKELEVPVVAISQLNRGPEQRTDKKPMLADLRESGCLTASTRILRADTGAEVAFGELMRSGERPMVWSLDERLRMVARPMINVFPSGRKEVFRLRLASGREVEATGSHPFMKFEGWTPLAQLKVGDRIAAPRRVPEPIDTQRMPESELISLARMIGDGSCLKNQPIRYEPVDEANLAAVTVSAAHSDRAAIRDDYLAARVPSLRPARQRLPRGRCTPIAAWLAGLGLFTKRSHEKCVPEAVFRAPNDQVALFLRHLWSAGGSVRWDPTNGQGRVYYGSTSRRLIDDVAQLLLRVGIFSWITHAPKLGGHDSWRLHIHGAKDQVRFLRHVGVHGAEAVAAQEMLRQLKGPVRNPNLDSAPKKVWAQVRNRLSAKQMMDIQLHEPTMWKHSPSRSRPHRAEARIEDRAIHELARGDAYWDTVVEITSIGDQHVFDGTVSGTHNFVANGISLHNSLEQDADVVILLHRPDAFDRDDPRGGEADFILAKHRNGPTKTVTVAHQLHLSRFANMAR

[7] = fluconazole-exposed Candida albicans growth modulators – fluorescence, retest, confirmation (AID 2467); type: functional, cell-based
[8] = NIH-3T3 fibroblast cytotoxicity, dose response, cytotoxicity control, cell-based, fluorescence, Alamar Blue, secondary assay (AID 2327); type: functional;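 also: NIH-3T3 mouse fibroblasts cultured with fluconazole at 8 µg/mL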
[9] = system: Streptococcus; test: GAS UMAA2166 growth inhibition – luminescence, BacTiterGlo, counter-screen for streptokinase expression inhibitor project, dose response (AID 1915); type: functional, organism-based; conditions: read-out: EC50;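 also: potency for reduction of bacterial viability or growth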
[10] = system: Streptococcus sp. 'group A'; test: Streptococcus pyogenes SK(-)GAS viability under kanamycin – luminescence, BacTiterGlo, confirmation, counter-screen for streptokinase expression inhibitor project, dose response (AID 1900); type: functional, organism-based
[11] = target: Cytochrome P450 3A4 (Homo sapiens, UniProt P08684);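 also: CYP3A4 tested as one member of a cytochrome P450 panel screen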
Sequence of Cytochrome P450 3A4 (P08684 whole entry): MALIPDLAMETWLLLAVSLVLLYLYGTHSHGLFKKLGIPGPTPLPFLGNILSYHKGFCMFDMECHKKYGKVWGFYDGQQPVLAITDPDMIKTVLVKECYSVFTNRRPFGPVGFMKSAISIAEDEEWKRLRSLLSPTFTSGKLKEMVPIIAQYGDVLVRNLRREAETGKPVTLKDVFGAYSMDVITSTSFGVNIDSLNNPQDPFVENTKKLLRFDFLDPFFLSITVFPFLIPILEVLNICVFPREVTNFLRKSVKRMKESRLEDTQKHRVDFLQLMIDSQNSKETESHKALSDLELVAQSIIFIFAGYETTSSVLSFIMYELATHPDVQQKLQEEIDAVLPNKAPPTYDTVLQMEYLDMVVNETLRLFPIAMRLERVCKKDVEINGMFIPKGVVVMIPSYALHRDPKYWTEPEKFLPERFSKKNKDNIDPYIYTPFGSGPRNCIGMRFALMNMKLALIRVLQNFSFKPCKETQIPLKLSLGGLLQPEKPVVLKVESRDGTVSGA

CCN1CCN(c2cc(C)c3cc(NC(=S)N4CCCC(C)C4)ccc3n2)CC1 (configuration not stated)
EC50 [1]: 11 µM (active)

O=C(O)c1cc(S(=O)(=O)Nc2ccc3c(c2)OCCO3)c(Cl)cc1Cl
EC50 [1]: 2.54 µM (active)

Cc1noc(NS(=O)(=O)c2ccc(N3Cc4ccccc4C3=O)cc2)c1C
EC50 [1]: > 195 µM (not active)

COC(=O)N1CCC[C@@]2(CCN(C(c3ccccc3)c3ccccc3)C2)C1
AC50 [2]: 25.1 µM (inconclusive) | AC50 [3]: 39.8 µM (inconclusive) | AC50 [4]: 12.6 µM (inconclusive)

CCNc1ncc2nc(CCc3ccccc3)c(=O)n(Cc3ccc(F)cc3)c2n1
AC50 [4]: 3.16 µM (inconclusive)

COc1ccccc1N(C)S(=O)(=O)c1ccc(C(=O)NC(C)c2ccccc2)cc1 (configuration not stated)
EC50 [1]: > 195 µM (not active)

O=C(CC1C(=O)NCCN1Cc1ccccc1F)NC1CCCCCC1 (configuration not stated)
EC50 [1]: 24.1 µM (active)

COc1ccc(-c2csc(Nc3ccc(O)cc3)n2)cc1
EC50 [5]: 123 µM (active) | AC50 [6]: 37.2 µM (active)

O=C(Nc1ccccc1)OCN1C(=O)c2ccccc2C1=O
EC50 [7]: > 38 µM (not active) | EC50 [8]: > 150 µM (inactive)

Cc1ccc2nc(O)c(CN(C(=O)c3cccc([N+](=O)[O-])c3)C(C)C)cc2c1
EC50 [1]: > 195 µM (not active)

COc1ccc(C(=O)NCCN2CCOCC2)c(OC)c1OC
EC50 [7]: > 38 µM (not active) | EC50 [8]: > 150 µM (inactive)

COc1cccc2c(=O)n(CC(=O)NCCc3ccccc3)ccc12
EC50 [1]: > 195 µM (not active)

O=C(CCS(=O)(=O)c1cccc2nsnc12)N1CCN(C(=O)c2ccco2)CC1
EC50 [7]: > 38 µM (not active) | EC50 [8]: > 160 µM (inactive)

CC1=NNC(=O)C1C(c1cccc(O)c1)C(C#N)C#N (configuration not stated)
EC50 [5]: 12.7 µM (active) | AC50 [6]: 28.3 µM (active)

CC(C)c1ccc(NC(=O)Nc2cc3sccc3n2C)cc1
EC50 [1]: > 195 µM (not active)

Cc1ccc2c(ccc[n+]2CC(=O)c2ccccc2)c1
EC50 [7]: > 38 µM (not active) | EC50 [8]: > 150 µM (inactive)

Cc1oc(-c2cccs2)nc1CN1CCN(Cc2ccc(F)c(F)c2)C(CCO)C1 (configuration not stated)
EC50 [7]: > 38 µM (not active) | EC50 [8]: > 150 µM (inactive)

O=C(NC1C(=O)NNC1c1ccc(Cl)cc1)c1ccc(F)cc1 (configuration not stated)
EC50 [5]: 4.94 µM (active) | AC50 [6]: 13.1 µM (active)

CC(=O)NC(=S)c1c(N)n(Cc2ccccc2)c(=O)n(C)c1=O
EC50 [5]: > 380 µM (inconclusive) | AC50 [6]: > 380 µM (inactive)

O=C(O)Cn1c(=O)c2c3c(sc2n(Cc2ccc(Cl)cc2Cl)c1=O)CCCC3
EC50 [1]: > 195 µM (not active)

Cc1cc(C(=O)c2ccccc2)c(NC(=O)CCl)s1
EC50 [5]: 2.83 µM (active) | AC50 [6]: 14.2 µM (active)

COc1ccccc1CNCC(O)(c1ccc(Cl)cc1)c1ccc(Cl)cc1
AC50 [4]: 10 µM (inconclusive)

Cc1cc(S(=O)(=O)N2CCCC2)ccc1OCC(=O)NCc1ccccc1
EC50 [1]: > 195 µM (not active)

Cc1cc(C)c(C#N)c(SCC(=O)NC(C)(C)C)n1
EC50 [1]: > 195 µM (not active)

Cc1cccc(-n2nc(C(=O)c3ccco3)cc(-c3nc4ccccc4[nH]3)c2=N)c1
EC50 [7]: > 38 µM (not active) | EC50 [8]: > 160 µM (inactive) | EC50 [9]: 5.95 µM (active) | EC50 [10]: 2.49 µM (active)

COCC(=O)N1CCC2(CC1)CN(Cc1cc(C(F)(F)F)cc(C(F)(F)F)c1)C2
AC50 [2]: 12.6 µM (inconclusive) | AC50 [3]: 20 µM (inconclusive) | AC50 [4]: 25.1 µM (inconclusive)

CCCCSC1=C(C#N)C(c2ccccc2C)CC(=O)N1 (configuration not stated)
EC50 [1]: > 195 µM (not active)

CSc1ccc(/C=C/C(=O)Nc2ccccc2)cc1
EC50 [7]: > 38 µM (not active) | EC50 [8]: > 150 µM (inactive)

O=C(CCCCCN1C(=O)c2ccccc2C1=O)NCc1ccccn1
AC50 [2]: 31.6 µM (inconclusive) | AC50 [11]: 25.1 µM (inconclusive) | AC50 [4]: 14.1 µM (inconclusive)

CC(C)CNS(=O)(=O)c1ccc(CCC(=O)N2CCOCC2)cc1
EC50 [1]: > 195 µM (not active)

COC(=O)c1ccc2c(=O)n(-c3ccccc3)c(=S)[nH]c2c1
EC50 [1]: > 195 µM (not active)

Clc1cccc(N/N=C/c2ccncc2)c1
EC50 [7]: > 38 µM (not active) | EC50 [8]: > 160 µM (inactive)

CCOC(=O)C(CC)/C(C)=N\NC(=O)c1ccccc1O (configuration not stated)
EC50 [7]: > 38 µM (not active) | EC50 [8]: > 160 µM (inactive)

COCCCC/C(=N\OCCN)c1ccc(C(F)(F)F)cc1 [FLUVOXAMINE MALEATE]
EC50 [1]: > 195 µM (not active)

CN(C)CCCc1cc(C(=O)Nc2ccc(-c3ccncc3)cc2)ccc1O [GR-55562]
AC50 [3]: 31.6 µM (inconclusive) | AC50 [11]: 1.26 µM (inconclusive) | AC50 [4]: 39.8 µM (inconclusive)

CN[C@H](CC(=O)O)C(=O)O [N-METHYL-D-ASPARTIC ACID (NMDA)]
AC50 [4]: 39.8 µM (inconclusive)

CCCCCCCCCCCCCCCC[N+](C)(C)CCN(Cc1ccc(OC)cc1)c1ncccn1 [THONZONIUM]
AC50 [2]: 15.8 µM (inconclusive) | AC50 [4]: 20 µM (inconclusive)
